Assay results published in US20190328832A1, “ANTIMICROBIAL COMBINATIONS” (HELPERBY THERAPEUTICS LIMITED, priority 2016, published 2019).

System: log phase NDM-1 Klebsiella Pneumoniae (BAA2473 strain)
Assay: Time-kill method over 24 hours against log phase NDM-1 Klebsiella pneumoniae (CFU counts)
Format: cell-based
Details: perphenazine alone at 128 mg/L, FIG. 1
Protocol: The objective of this example was to test the synergistic effect of perphenazine and colistin (in the form of colistimethate sodium) in combination against log phase NDM-1 Klebsiella Pneumoniae by time-kill methods over a time period of 24 hours. As described hereinabove, time-kill methods are another accepted test for ascertaining the presence or absence of synergy, and involve comparing the dynamic effect of a drug combination with each drug alone when assessing the effect on bacterial log or stationary-growth over time.
Materials and Methods • 1. Bacterial strain used: BAA2473 strain of Klebsiella pneumoniae • 2. Growth of bacteria: Log phase growth of BAA2473 was carried out according to known methods in the art, e.g. SOP R-005-00 Log Phase Growth of Bacteria. • 3. Compound preparation: • i. Perphenazine was ordered from Sigma Aldrich® UK. • ii. Colistin was obtained as Colistimethate sodium (Forest Laboratories UK 1 million I. U. 80 mg). • 4. The overnight culture was diluted with nutrient broth (Oxoid) to […] and 280 μl and 290 ul of the culture was added to each combination well and drug respectively, to make the final concentration of 300 μl. • 5. Incubation of the compounds with the bacterial suspension was carried out for 24 hours. At 0, 2, 4, 7 and 24 hours, CFU counts were performed to measure the kill effects of the drug combination.

`OCCN1CCN(CCCN2c3ccccc3Sc3ccc(Cl)cc32)CC1` [perphenazine, 2-[4-[3-(2-chloro-10H-phenothiazin-10-yl)propyl]piperazin-1-yl]ethanol] was tested, and the “effect against NDM-1 K. pneumoniae (time-kill, Log CFU/ml)” value was “little or no effect”.
